Experiment [1] addresses T1, DNA topoisomerase 1 (Homo sapiens) (UniProt P11387).
T1 sequence (whole entry): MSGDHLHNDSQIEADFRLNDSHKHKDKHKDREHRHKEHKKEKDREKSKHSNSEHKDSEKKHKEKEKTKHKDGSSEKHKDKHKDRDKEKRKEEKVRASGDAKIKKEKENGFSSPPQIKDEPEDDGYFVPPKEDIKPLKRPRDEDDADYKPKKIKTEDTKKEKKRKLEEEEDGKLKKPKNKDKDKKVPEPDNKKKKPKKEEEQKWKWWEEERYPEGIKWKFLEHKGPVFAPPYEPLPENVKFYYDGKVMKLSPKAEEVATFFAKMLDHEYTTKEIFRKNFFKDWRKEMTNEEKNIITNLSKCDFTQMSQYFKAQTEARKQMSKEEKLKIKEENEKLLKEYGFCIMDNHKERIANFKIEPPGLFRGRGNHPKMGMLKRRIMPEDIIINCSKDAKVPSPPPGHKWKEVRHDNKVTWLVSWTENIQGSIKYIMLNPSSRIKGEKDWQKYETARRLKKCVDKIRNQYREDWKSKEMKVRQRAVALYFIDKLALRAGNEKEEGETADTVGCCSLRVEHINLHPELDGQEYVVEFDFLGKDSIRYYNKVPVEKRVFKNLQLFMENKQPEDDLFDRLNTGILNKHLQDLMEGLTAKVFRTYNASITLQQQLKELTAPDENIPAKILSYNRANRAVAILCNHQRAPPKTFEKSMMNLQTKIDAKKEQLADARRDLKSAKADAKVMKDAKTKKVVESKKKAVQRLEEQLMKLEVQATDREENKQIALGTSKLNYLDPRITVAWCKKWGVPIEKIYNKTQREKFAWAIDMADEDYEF
The experiment can be described thus: Promotion of human topoisomerase 1-mediated DNA cleavage.

Experiment [2] concerns the target DNA topoisomerase II (Homo sapiens) (UniProt P11388+Q02880). Nature of the experiment: Promotion of human topoisomerase 2-mediated DNA cleavage. Format: protein assay.
Experiment [3] relates to HT-29. Nature of the experiment: Cell cycle arrest in HT29 cells by accumulation at G2/M phase by flow cytometry at […]. It counts as functional, Homo sapiens. On the technique in general: A flow cytometer gives signals particle by particle.
In experiment [4] the test system is MOLT-4. Nature of the experiment: Antiproliferative activity against human MOLT4 cell line by MTT assay. Format: functional, cell-based. Background: Tetrazolium dyes change colour on reduction, which living cells bring about.
In experiment [5] the test system is WIL2-NS. The experiment can be described thus: Antiproliferative activity against human Wil2-NS cells by MTT assay. It counts as functional, cell-based.
The subject of experiment [6] is C8166. The experiment can be described thus: Antiproliferative activity against human C8166 cell line by MTT assay. It counts as functional, cell-based.
Experiment [7] deals with MT4. Nature of the experiment: Antiproliferative activity against human MT4 cell line by MTT assay. Format: functional, cell-based.
The test system of experiment [8] is CCRF-SB. Nature of the experiment: Antiproliferative activity against human CCRF-SB cell line by MTT assay. It counts as functional, cell-based.
Experiment [9] concerns CCRF-CEM. The experiment can be described thus: Antiproliferative activity against human CCRF-CEM cell line by MTT assay. It counts as functional, cell-based.
Experiment [10] deals with G-361. The experiment can be described thus: Antiproliferative activity against human G361 cell line by MTT assay. Format: functional, cell-based.
Experiment [11] concerns HT-29. Nature of the experiment: Antiproliferative activity against human HT29 cell line by MTT assay. Format: functional, cell-based.
For experiment [12], the system named is HeLa. Nature of the experiment: Antiproliferative activity against human HeLa cells by MTT assay. Format: functional, cell-based.
Experiment [13] deals with HEp-2. Nature of the experiment: Antiproliferative activity against human Hep2 cell line by MTT assay. Format: functional, cell-based.
Experiment [14] deals with ACHN. Nature of the experiment: Antiproliferative activity against human ACHN cell line by MTT assay. It counts as functional, cell-based.
The test system of experiment [15] is 5637. The experiment can be described thus: Antiproliferative activity against human 5637 cell line by MTT assay. It counts as functional, cell-based.
Experiment [16] deals with KB. The experiment can be described thus: Antiproliferative activity against human KB cell line by MTT assay. Format: functional, cell-based.
For experiment [17], the system named is HT-29. Nature of the experiment: Cell cycle arrest in HT29 cells by accumulation at G0/G1 phase by flow cytometry at […]. Format: functional, Homo sapiens.
Experiment [18] has as its system HT-29. Nature of the experiment: Cell cycle arrest in HT29 cells by accumulation at S phase by flow cytometry at […]. It counts as functional, Homo sapiens.
Experiment [19] addresses T1, DNA topoisomerase 1 (Homo sapiens). The experiment can be described thus: Unwinding of DNA mediated by topoisomerase 1 at 20 uM.

SMILES strings stand for the structures. Calls of active or inactive are those of the source. The rule behind the calls is not given here.

One may read the IC50 as the concentration that inhibits the measured activity by half. In the case of `O=c1cc2oc3ccc4ccccc4c3nc-2c2cccnc12`, the result in experiment [1] and in [2] was inactive. The Activity in experiment [3] was determined as 48.66%; in [17], 27.93%; in [18], 23.42%. Besides, the IC50 in experiment [4] was determined as 40 nM; in experiment [5], 5 nM; in experiment [6], 1 nM; in experiment [7], 10 nM; in [8], 10 nM; in [9], 1 nM. In addition, the IC50 in [10] was 20 nM; in experiment [11], 2 nM; in [12] it was 1 nM; in experiment [13], 40 nM; in experiment [14], 10 nM; in experiment [15], 10 nM. In addition, in experiment [16], the IC50 came to 10 nM. For the same compound, in [19], the result was Active.

The values are drawn from ChEMBL document CHEMBL1145337, “Antitumor agents. 5. synthesis, structure-activity relationships, and biological evaluation of dimethyl-5H-pyridophenoxazin-5-ones, tetrahydro-5h-benzopyridophenoxazin-5-ones, and 5h-benzopyridophenoxazin-5-ones with potent antiproliferative activity” (J Med Chem, 2006).
